Data taken from ChEMBL document CHEMBL1201862, “PubChem BioAssay data set” (2004).
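Following 48 hours of exposure in 96-well plates, responses at five concentrations were used to interpolate endpoints linearly. GI50 = concentration required for 50% inhibition of growth.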 Active and inactive are the calls of the source. No stated cut-off is given here; in the data, active = GI50 up to about 1.1 µM and inactive = higher.

How the values were obtained:
Assay in all cases: DTP human tumour cell line panel, 48 h
[1] = system: SR
[2] = system: MOLT-4
[3] = system: Hs-578T
[4] = system: PC-3
[5] = system: OVCAR-3
[6] = system: SF-295
[7] = system: HL-60
[8] = system: NCI-H460
[9] = system: SN12C
[10] = system: HT-29
[11] = system: HOP-62
[12] = system: KM12
[13] = system: OVCAR-5
[14] = system: T47D
[15] = system: OVCAR-8
[16] = system: NCI/ADR-RES
[17] = system: UO-31
[18] = system: A549
[19] = system: HCT-116
[20] = system: HCT-15
[21] = system: MDA-MB-435
[22] = system: SK-MEL-5
[23] = system: RPMI-8226
[24] = system: CAKI-1
[25] = system: TK-10
[26] = system: U-251
[27] = system: M14
[28] = system: NCI-H226
[29] = system: SK-MEL-2
[30] = system: DU-145
[31] = system: SNB-75
[32] = system: ACHN
[33] = system: SW-620
[34] = system: UACC-62
[35] = system: A498
[36] = system: SK-MEL-28
[37] = system: SF-268
[38] = system: IGROV-1
[39] = system: 786-0
[40] = system: HOP-92
[41] = system: K562
[42] = system: SK-OV-3
[43] = system: MDA-MB-231
[44] = system: UACC-257
[45] = system: MDA-N
[46] = system: CCRF-CEM
[47] = system: SNB-19
[48] = system: NCI-H23
[49] = system: MCF7
[50] = system: NCI-H522
[51] = system: EKVX
[52] = system: COLO 205
[53] = system: OVCAR-4
[54] = system: BT-549
[55] = system: RXF 393
[56] = system: Malme-3M
[57] = system: SF-539
[58] = system: HCC 2998
[59] = system: LOX IMVI

SMILES: COC(=O)N[C@@H]1C[C@H]2CC[C@]1(O[Si](C(C)C)(C(C)C)C(C)C)C(=O)C2
- GI50 [1]: 6.93 µM (inactive)
- GI50 [2]: 24.3 µM (inactive)
- GI50 [3]: 10.3 µM (inactive)
- GI50 [4]: 12.9 µM (inactive)
- GI50 [5]: 17.7 µM (inactive)
- GI50 [6]: 14.7 µM (inactive)
- GI50 [7]: 16.9 µM (inactive)
- GI50 [8]: 20.7 µM (inactive)
- GI50 [9]: 33.5 µM (inactive)
- GI50 [10]: 19.1 µM (inactive)
- GI50 [11]: 21.4 µM (inactive)
- GI50 [12]: 18.2 µM (inactive)
- GI50 [13]: 18.5 µM (inactive)
- GI50 [14]: 19 µM (inactive)
- GI50 [15]: 23.1 µM (inactive)
- GI50 [16]: 14.8 µM (inactive)
- GI50 [17]: 14.1 µM (inactive)
- GI50 [18]: 14.3 µM (inactive)
- GI50 [19]: 18.5 µM (inactive)
- GI50 [20]: 17.8 µM
- GI50 [21]: 17.9 µM (inactive)
- GI50 [22]: 16.4 µM (inactive)
- GI50 [23]: 15.8 µM (inactive)
- GI50 [24]: 23.9 µM (inactive)
- GI50 [25]: 14.7 µM (inactive)
- GI50 [26]: > 10 µM (inactive)
- GI50 [27]: 18.5 µM (inactive)
- GI50 [28]: 14.2 µM (inactive)
- GI50 [29]: 17.4 µM (inactive)
- GI50 [30]: > 100 µM (inactive)
- GI50 [31]: 20 µM (inactive)
- GI50 [32]: 18.4 µM (inactive)
- GI50 [33]: 27.7 µM (inactive)
- GI50 [34]: 15.6 µM (inactive)
- GI50 [35]: 21.4 µM (inactive)
- GI50 [36]: 14.6 µM (inactive)
- GI50 [37]: 12.9 µM (inactive)
- GI50 [38]: 13.6 µM (inactive)
- GI50 [39]: 17.9 µM (inactive)
- GI50 [40]: 17.5 µM (inactive)
- GI50 [41]: > 100 µM (inactive)
- GI50 [42]: 21.3 µM (inactive)
- GI50 [43]: 20.5 µM (inactive)
- GI50 [44]: 11.8 µM (inactive)
- GI50 [45]: 21.9 µM (inactive)
- GI50 [46]: 18 µM (inactive)
- GI50 [47]: 18.1 µM (inactive)
- GI50 [48]: 17.1 µM (inactive)
- GI50 [49]: 21.1 µM (inactive)
- GI50 [50]: 8.59 µM (inactive)
- GI50 [51]: 15.4 µM (inactive)
- GI50 [52]: 34.6 µM (inactive)
- GI50 [53]: 14.5 µM (inactive)

SMILES: COc1ccc2c(c1)CC[C@@H]1[C@@H]2CC[C@]2(C)C(=O)/C(=C/c3ccc(OC)c(OC)c3)C[C@@H]12
- GI50 [1]: 5.07 µM (inactive)
- GI50 [2]: > 100 µM (inactive)
- GI50 [4]: > 100 µM (inactive)
- GI50 [5]: > 100 µM (inactive)
- GI50 [6]: > 100 µM (inactive)
- GI50 [54]: > 100 µM (inactive)
- GI50 [7]: > 100 µM (inactive)
- GI50 [8]: > 100 µM (inactive)
- GI50 [11]: > 100 µM (inactive)
- GI50 [12]: > 100 µM (inactive)
- GI50 [13]: > 100 µM (inactive)
- GI50 [16]: > 100 µM (inactive)
- GI50 [17]: > 100 µM (inactive)
- GI50 [18]: > 100 µM (inactive)
- GI50 [19]: 65.9 µM (inactive)
- GI50 [20]: > 100 µM
- GI50 [21]: > 100 µM (inactive)
- GI50 [22]: > 100 µM (inactive)
- GI50 [23]: 56.2 µM (inactive)
- GI50 [55]: > 100 µM (inactive)
- GI50 [24]: > 100 µM (inactive)
- GI50 [25]: > 100 µM (inactive)
- GI50 [26]: > 100 µM (inactive)
- GI50 [27]: > 100 µM (inactive)
- GI50 [29]: > 100 µM (inactive)
- GI50 [30]: > 100 µM (inactive)
- GI50 [31]: > 100 µM (inactive)
- GI50 [32]: > 100 µM (inactive)
- GI50 [33]: > 100 µM (inactive)
- GI50 [34]: > 100 µM (inactive)
- GI50 [35]: > 100 µM (inactive)
- GI50 [56]: > 100 µM (inactive)
- GI50 [39]: > 100 µM (inactive)
- GI50 [57]: > 100 µM (inactive)
- GI50 [40]: 97.5 µM (inactive)
- GI50 [42]: > 100 µM (inactive)
- GI50 [43]: > 100 µM (inactive)
- GI50 [58]: > 100 µM (inactive)
- GI50 [47]: > 100 µM (inactive)
- GI50 [48]: 97.9 µM (inactive)
- GI50 [49]: > 100 µM (inactive)
- GI50 [51]: > 100 µM (inactive)
- GI50 [53]: > 100 µM (inactive)

SMILES: COc1cc2c(cc1OC)C1(COc3cc(O)c(O)c(O)c3C1=O)C2 (stereo unspecified)
- GI50 [1]: > 50 µM (inactive)
- GI50 [2]: > 50 µM (inactive)
- GI50 [3]: 16.4 µM (inactive)
- GI50 [4]: > 50 µM (inactive)
- GI50 [5]: > 50 µM (inactive)
- GI50 [6]: 25.9 µM (inactive)
- GI50 [7]: > 50 µM (inactive)
- GI50 [8]: > 50 µM (inactive)
- GI50 [9]: > 50 µM (inactive)
- GI50 [10]: > 50 µM (inactive)
- GI50 [11]: > 50 µM (inactive)
- GI50 [12]: > 50 µM (inactive)
- GI50 [13]: > 50 µM (inactive)
- GI50 [14]: 5.11 µM (inactive)
- GI50 [15]: > 50 µM (inactive)
- GI50 [16]: > 50 µM (inactive)
- GI50 [17]: > 50 µM (inactive)
- GI50 [18]: > 50 µM (inactive)
- GI50 [19]: > 50 µM (inactive)
- GI50 [20]: > 50 µM
- GI50 [21]: > 50 µM (inactive)
- GI50 [22]: > 50 µM (inactive)
- GI50 [23]: > 50 µM (inactive)
- GI50 [55]: > 50 µM (inactive)
- GI50 [24]: > 50 µM (inactive)
- GI50 [25]: > 50 µM (inactive)
- GI50 [26]: > 50 µM (inactive)
- GI50 [27]: > 50 µM (inactive)
- GI50 [28]: > 50 µM (inactive)
- GI50 [29]: > 50 µM (inactive)
- GI50 [30]: > 50 µM (inactive)
- GI50 [31]: 8.65 µM (inactive)
- GI50 [32]: > 50 µM (inactive)
- GI50 [33]: > 50 µM (inactive)
- GI50 [59]: > 50 µM (inactive)
- GI50 [34]: > 50 µM (inactive)
- GI50 [35]: > 50 µM (inactive)
- GI50 [36]: > 50 µM (inactive)
- GI50 [56]: > 50 µM (inactive)
- GI50 [37]: > 50 µM (inactive)
- GI50 [38]: > 50 µM (inactive)
- GI50 [39]: > 50 µM (inactive)
- GI50 [57]: > 50 µM (inactive)
- GI50 [41]: > 50 µM (inactive)
- GI50 [42]: > 50 µM (inactive)
- GI50 [43]: > 50 µM (inactive)
- GI50 [44]: > 50 µM (inactive)
- GI50 [45]: > 50 µM (inactive)
- GI50 [46]: > 50 µM (inactive)
- GI50 [47]: > 50 µM (inactive)
- GI50 [48]: 45.4 µM (inactive)
- GI50 [49]: 0.005 µM (active)
- GI50 [50]: > 50 µM (inactive)
- GI50 [52]: > 50 µM (inactive)
- GI50 [53]: > 50 µM (inactive)
